Earlier results as cited in publication PMC3065555 (European journal of medicinal chemistry, 2011).

Biological target: SERCA (Oryctolagus cuniculus, UniProt P04191)
Settings: training set compounds previously characterized; ref [1], [6], [32]

Chain of SERCA (P04191 1-994 isoform P04191-2): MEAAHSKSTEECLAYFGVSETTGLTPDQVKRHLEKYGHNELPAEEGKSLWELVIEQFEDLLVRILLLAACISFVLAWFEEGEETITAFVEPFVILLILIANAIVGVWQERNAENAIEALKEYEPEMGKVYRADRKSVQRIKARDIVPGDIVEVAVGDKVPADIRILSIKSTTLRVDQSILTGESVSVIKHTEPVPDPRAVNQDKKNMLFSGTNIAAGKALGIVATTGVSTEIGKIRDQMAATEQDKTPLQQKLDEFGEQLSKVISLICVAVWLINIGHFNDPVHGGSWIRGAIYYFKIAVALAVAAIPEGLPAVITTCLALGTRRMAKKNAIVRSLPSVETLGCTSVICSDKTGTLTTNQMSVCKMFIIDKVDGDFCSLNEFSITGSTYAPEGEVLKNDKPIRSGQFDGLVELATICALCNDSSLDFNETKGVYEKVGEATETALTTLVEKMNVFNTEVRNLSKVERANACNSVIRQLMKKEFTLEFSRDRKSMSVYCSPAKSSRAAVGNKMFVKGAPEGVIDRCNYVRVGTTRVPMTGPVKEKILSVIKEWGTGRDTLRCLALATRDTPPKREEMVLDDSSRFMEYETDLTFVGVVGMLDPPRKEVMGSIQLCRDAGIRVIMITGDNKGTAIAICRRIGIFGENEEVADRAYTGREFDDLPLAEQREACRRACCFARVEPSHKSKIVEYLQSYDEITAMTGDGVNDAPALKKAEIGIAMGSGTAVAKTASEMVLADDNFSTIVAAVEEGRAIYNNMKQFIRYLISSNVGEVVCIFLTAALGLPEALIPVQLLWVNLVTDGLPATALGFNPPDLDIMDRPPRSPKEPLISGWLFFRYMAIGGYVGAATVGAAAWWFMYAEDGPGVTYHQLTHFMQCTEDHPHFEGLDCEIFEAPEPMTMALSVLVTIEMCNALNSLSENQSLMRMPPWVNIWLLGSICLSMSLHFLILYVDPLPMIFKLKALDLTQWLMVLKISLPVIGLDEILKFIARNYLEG

Row | IC50 | Compound
1 | inactive | CC(C)(C)c1ccc(C(C)(C)C)cc1 [1,4-di-tert-butylbenzene]
2 | 6.81 µM | CC(C)(C)c1ccc(C(C)(C)C)c(O)c1 [2,5-di-tert-butylphenol]
